Here are results for 10 compounds from patent publication US20180118699A1, “SK AND IK CHANNEL AGONISTS FOR TREATMENT OF HEART FAILURE” (THE TRUSTEES OF COLUMBIA UNIVERSITY IN THE CITY OF NEW YORK, priority 2015, published 2018).

The conditions of data set [1]: two hours after IP injection of 100 μg (5 μg/g); cited from earlier work.
The conditions of data set [2]: mice; cited from earlier work.
Data set [3] can be described thus: IV bolus in mouse with systolic heart failure, left ventricular pressure-volume recording. In kind it is in vivo. Conditions: IV bolus 3 mg/kg, wildtype mouse with heart failure (FAC 38%). How it is done:
FIG. 22 depicts data of a wildtype mouse with heart failure (FAC 38%) given an IV bolus of SKA-31 (3 mg/kg) through the left internal jugular vein during simultaneous recording of left ventricular pressure and volume using a Milar conductance catheter inserted through the right carotid artery.
In this experiment, a wildtype mouse with heart failure (FAC 38%) was given an IV bolus of SKA-31 (3 mg/kg) through the left internal jugular vein during simultaneous recording of left ventricular pressure and volume using a Milar conductance catheter inserted through the right carotid artery. (FIG. 22)
BK channel deficient mice and wildtype littermates developed an ischemic cardiomyopathy after surgical ligation of the left anterior descending coronary artery. Systolic heart failure was confirmed six weeks later by noting a fractional area of change (FAC) of 40% or lower on 2D echocardiography (Visualsonics Vevo 2100). […] Continuous LV pressure and volume measurements were recorded (MPVS Ultra by Milar with PowerLab 4/35 and LabChart by ADInstruments). After stable baseline LV measurements were recorded, vehicle (Cremophor EL made by Calbiochem) was infused intravenously into the cannulated internal jugular vein as a single bolus in the same volume later used to deliver an intravenous bolus of SKA-31 (Tocris) at 3 mg/kg. […]

The conditions of data set [4]: cited from earlier work.
For data set [5] the following is noted: rats; cited from earlier work.
For data set [6] the following is noted: cited from earlier work; for lowering of mean arterial pressure: 30 mg/kg.
Data set [7] deals with mesenteric resistance vessels. The data set can be described thus: Dilation of cannulated mesenteric resistance vessels.
Description: Vessels were mounted onto cannulas and equilibrated at 80 mm Hg. […] The vessels were continuously constricted with 1 μM phenylephrine. […] At the conclusion of the experiment, the vessels were superfused in a Ca^2+-free solution to determine maximal dilation. Data shown are mean+s.e.m., relative to maximal dilation determined in Ca^2+-free solution. N=4.
The next data set concerns SK channels. Conditions: cited from earlier work.
The test system of another data set is SK3 and IK1 channels. The data set can be described thus: Electrophysiology of freshly isolated mesenteric endothelial cells. The class given is cell-based, mice. The source says:
FIGS. 18A-18D collectively are graphs showing electrophysiological characterization of SK channels in freshly isolated mesenteric endothelial cells.
Endothelial cells were isolated from third-order mesenteric arteries of mice using enzymatic digestion followed by labeling the endothelial cells with CD34 antibody-labeled magnetic beads, collecting them using a magnet and then releasing them from the beads by competition. To measure both SK3 and IK1 currents, the cells were dialyzed with KCl-solution containing 3 μM free Ca^2+ and currents elicited using voltage ramps and by the activator NS-309 (see FIGS. 18A-18B).

For data set [8] the following is noted: cited from earlier work. This is another data set of the same source.
Data set [9] concerns the target T1, BK channels (Mus musculus, UniProt Q08460).
T1 construct: from tissue; host or cells: third-order mesenteric resistance arteries of mice (sham and heart failure)
Put plainly: Whole cell K+ currents in freshly isolated mesenteric VSM cells. In kind it is cell-based, mice. The settings on record: control VSM cells, 2 μM Ang II. How it is done:
Whole cell K^+ currents at baseline (black trace) and after exposure to 1 μM paxilline (red trace in FIG. 14A) or 2 μM Ang II (blue trace in FIG. 14B). The intrapipette solution contained 9 μM Ca^2+.
Conversely, Ang II (2 μM) or phenylephrine (10 μM) may differentially modulate channel function in VSM cells isolated from HF mice. Ang II inhibits BK channel function through its effects on PKC, c-Src and Nox (Lu et al. 2010). Ang II causes less inhibition if BK channels are already modified by PKC, c-Src or Nox pathways, as compared to the effect on BK channels from control VSM cells, in which Ang II suppressed BK current by 50% (see FIG. 14B).
Two determinants of BK activity are used: STOCs and whole-cell current density. BK currents are a very large fraction of the total K^+ currents in freshly isolated mesenteric VSM cells (see FIG. 14A). […] PKCα and PKCδ may be the relevant PKC isoforms, which are further delineated using specific inhibitors.

Another data set addresses T2, human KCNN3 (SK3) (Homo sapiens, UniProt P0DP23+Q9UGI6).
T2 construct: GFP; expressed in transfected cells; host or cells: HEK293
Put plainly: Whole-cell patch clamp of KCa potassium channel activator activity in transfected HEK293 cells. The class given is cell-based. Conditions: HEK293 SK3 whole-cell currents. An excerpt:
Currents were activated by 200 msec depolarizing ramps between −120 mV and +30 mV, from a holding potential of −90 mV, and then deactivated by repolarization to the holding potential. […] Colored bars indicate application of the XX-03-64 and XX-03-56 agonists.
Currents were activated by 200 msec depolarizing ramps between −120 mV and +30 mV, from a holding potential of −90 mV, and then deactivated by repolarization to the holding potential. Voltage ramps were applied every 5 seconds. The bath solution was 140 mM NaCl, 4 mM KCl, 0.1 mM CaCl2, 3 mM Mg Cl2, 10 mM HEPES (pH 7.4) and the pipette solution was 150 mM KCl, 5 mM TES (pH 7.2), 2 mM HEDTA, and 1 μM free Ca^2+. The free Ca^2+ concentration was calculated using the Max Chelator program and confirmed using a Ca^2+ electrode (Orion). Agonists were superfused in the bath solution.

Data set [10] deals with T1, BK channels. The data set can be described thus: Myogenic tone of pressurized mesenteric arteries with BK channel blocker. Set-up: species or system mice. The settings on record: for increase of constriction: 120 mm Hg. On the procedure:
FIG. 11A is a graph showing the effect of paxilline on myogenic tone measured at 120 mm Hg. Constriction induced by paxilline was calculated as the difference between myogenic tone (%) pre- and post-paxilline. Mean+s.e.m. No heart failure (no HF): N=6 vessels; heart failure (HF): N=5 vessels. ** P<0.01, Student's t test. FIG. 11B is a graph showing that myogenic tone is equivalent in paxilline-treated vessels from control mice and mice with heart failure. Mean+s.e.m. No HF: N=6 vessels; HF: N=5 vessels.
If HF alters myogenic tone by reducing BK channel expression and currents, then the effect of paxilline should be reduced. […] Inhibiting BK channels with paxilline in sham-treated (no HF) control mice caused an increase in myogenic tone, approximating the increased myogenic tone of vessels isolated from HF mice (see FIG. 11B).

The mark [11] stands for this setting: mesenteric arteries from HF mice.
[12] abbreviates: mesenteric arteries from mice without HF.

Read-outs that look alike come from different tables or passages of the source.

T1 sequence (Q08460 whole entry): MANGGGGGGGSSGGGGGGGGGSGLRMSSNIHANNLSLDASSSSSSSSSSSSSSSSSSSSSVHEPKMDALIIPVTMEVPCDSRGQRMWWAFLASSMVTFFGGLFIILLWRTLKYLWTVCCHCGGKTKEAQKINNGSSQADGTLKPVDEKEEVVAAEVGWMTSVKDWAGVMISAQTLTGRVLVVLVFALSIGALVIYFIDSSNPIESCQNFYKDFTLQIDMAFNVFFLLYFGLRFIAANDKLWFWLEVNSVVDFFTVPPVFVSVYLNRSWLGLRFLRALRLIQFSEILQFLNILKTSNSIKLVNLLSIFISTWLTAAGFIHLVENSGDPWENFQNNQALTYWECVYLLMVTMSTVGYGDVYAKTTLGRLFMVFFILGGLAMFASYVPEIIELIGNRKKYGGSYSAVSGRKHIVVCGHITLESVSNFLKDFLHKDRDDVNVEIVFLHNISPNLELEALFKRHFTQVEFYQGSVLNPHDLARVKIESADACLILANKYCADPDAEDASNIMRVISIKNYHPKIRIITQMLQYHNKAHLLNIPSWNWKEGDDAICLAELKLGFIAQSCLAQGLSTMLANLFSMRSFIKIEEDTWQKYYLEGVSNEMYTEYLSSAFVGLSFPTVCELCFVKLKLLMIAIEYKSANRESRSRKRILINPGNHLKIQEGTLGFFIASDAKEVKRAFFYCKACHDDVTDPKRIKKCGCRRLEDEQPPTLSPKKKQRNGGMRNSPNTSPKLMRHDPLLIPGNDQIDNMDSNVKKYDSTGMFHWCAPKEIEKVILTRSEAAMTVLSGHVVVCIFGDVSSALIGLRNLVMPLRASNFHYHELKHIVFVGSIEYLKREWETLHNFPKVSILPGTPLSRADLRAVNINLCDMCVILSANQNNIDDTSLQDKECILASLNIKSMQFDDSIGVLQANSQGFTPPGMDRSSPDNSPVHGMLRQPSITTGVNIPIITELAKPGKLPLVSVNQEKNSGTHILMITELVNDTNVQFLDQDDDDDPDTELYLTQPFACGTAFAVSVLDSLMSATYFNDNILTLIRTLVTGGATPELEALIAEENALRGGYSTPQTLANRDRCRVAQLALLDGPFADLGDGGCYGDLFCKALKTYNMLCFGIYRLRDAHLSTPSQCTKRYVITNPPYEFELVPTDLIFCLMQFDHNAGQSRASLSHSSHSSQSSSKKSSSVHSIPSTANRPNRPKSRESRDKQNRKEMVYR
T1 sequence (Q8CAE3 whole entry partner): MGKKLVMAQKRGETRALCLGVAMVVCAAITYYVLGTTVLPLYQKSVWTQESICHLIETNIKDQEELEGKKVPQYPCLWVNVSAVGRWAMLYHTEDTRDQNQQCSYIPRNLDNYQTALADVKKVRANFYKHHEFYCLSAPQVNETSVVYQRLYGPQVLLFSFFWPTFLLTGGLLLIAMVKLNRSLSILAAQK

Turning to `CC(=O)c1c(O)c(C)c(O)c(Cc2c(O)c3c(c(C(=O)/C=C/c4ccccc4)c2O)OC(C)(C)C=C3)c1O` [rottlerin, Rottlerin], the plasma level in [1] was 2.9 µg/mL.
In the case of `Nc1nc2c(ccc3ccccc32)s1` [XX-03-58, naphtha[1,2-d]thiazol-2-ylamine], the acute toxicity result in data set [2] and in data set [5] was “no acute toxicity” each time. Besides, the cardiac work result in data set [3] is listed as “improves cardiac work”. Besides, the free plasma level in data set [4] (10 mg/kg IP, 24 h) is reported as 300 nM. For the same compound, the plasma concentration in data set [4] (10 mg/kg IP, mice, 2 h) is 5.5 µM; in data set [4] (10 mg/kg IP, mice, 4 h), 1.4 µM; in data set [4] (10 mg/kg IP, mice, 24 h), 0.5 µM. Besides, the free in plasma in data set [4] (mice) is listed as 61%. In data set [4] (mice), the plasma protein-bound is 39%. In addition, the “lowering of mean arterial pressure” value in data set [6] (mice with hypertension) is 12 mm Hg; in data set [6] (normal mice), 6 mm Hg. Further, the “lowering of blood pressure” value in [6] (single IP injection 10 mg/kg, at 24 h) is reported as 4 mm Hg. The dilation of vessels result is recorded as “effectively dilated the vessels” in [7] (intraluminal 250 nM or 1 μM, vessels of control mice and mice with HF); “caused dilatation of vessels from β1 null mice to a similar extent as vessels from WT mice” in data set [7] (phenylephrine-constricted vessels of BK β1 null mice). Besides, the “EC50 of SK channel activation” value with SK channels is given as “low μM range”.
NS-309: the “activation of SK/IK channels” value in the data set on SK3 and IK1 channels (5 μM NS-309) was “reversible NS-309 (5 μM) activation of SK/IK channels”. Further, the “endothelial cell membrane potential” value in the data set with SK3 and IK1 channels (NS309) is given as “caused hyperpolarization of the endothelial cell membrane potential”. Besides, the half-life result in [8] is “extremely short half-life”.
For the compound `C[N+](C)(C)CCOC(N)=O` [carbachol], in the data set on SK3 and IK1 channels (carbachol 2 μM), the “endothelial cell membrane potential” value is recorded as “hyperpolarization of endothelial cell membrane potential”.
Regarding `Clc1ccccc1C(c1ccccc1)(c1ccccc1)n1cccn1` [TRAM-34], in data set [7] (intraluminal 1 μM TRAM-34 and 100 nM apamin together, phenylephrine-constricted vessels), the “effect on SKA-31 (1 μM)-mediated vasodilation” value is given as “prevented”.
On to “angiotensin II (DRVYIHPF; Angiotensin-2; UniProt P01019 25-32, looked up) [Ang II, circulating angiotensin II]”, for which, in the data set with BK channels [9], the “suppression of BK current” value was determined as 50%.
Take `Nc1nc2c(ccc3cc(Cl)ccc32)s1` [XX-03-56]: the “Note: rank of activity” value on human KCNN3 (SK3) is recorded as “Most active”.
As for `CC(C)(O)[C@H]1O[C@H]2CC[C@@]3(C)[C@@](O)(CC[C@H]4Cc5c([nH]c6ccccc56)[C@@]43C)C2=CC1=O` [paxilline], at BK channels [10] (setting [11]), the “relative increase in myogenic tone” value is reported as 3% and the increase of constriction is recorded as 0.9%. Moreover, at BK channels [10] (setting [12]), the “relative increase in myogenic tone” value was 51.9% and the increase of constriction is reported as 10.9%.
In the case of `COc1ccc2c(ccc3sc(N)nc32)c1` [XX-03-52], on human KCNN3 (SK3), the “Note: rank of activity” value was found to be 2nd most active.
With `Cc1ccc2ccc3sc(N)nc3c2c1` [XX-03-64], the “Note: rank of activity” value on human KCNN3 (SK3) is “least active”.
